Experimental data taken from US20250270170A1, “2,3-DIMETHOXY-5-METHYL-1,4-BENZOQUINONE ALKYL ALCOHOL DERIVATIVE AND USE THEREOF” (BEIJING ANJIANXI BIO-MEDICAL TECHNOLOGY CO., LTD., priority 2021, published 2025).
“And” between values parts separate entries of the source, which are not always exact repeats. Identical values can stand only once.

How the values were obtained:
NCI-H460 cells = assay: Cell EDU proliferation assay, NCI-H460; assay type: cell-based, human; conditions: 150 μM
Experimental: The compound of formula (I) at a concentration of 150 μM was co-cultured with the cells for 42 h, and then the FBS concentration in the FBS stimulation well was increased to 20%. The cells were cultured for another 6 h, and then detected using a Cell-Light EDUApollo567 kit.
(1) Cells in the logarithmic growth phase were taken, and inoculated into a 24-well culture plate at 1×10^4 cells per well. The culture plate was cultured in a 37° C. incubator under the condition of 5% CO2, and drug was added according to the assay design when the cells adhered to the wall.
(2) After the drug treatment, the Cell-Light EDU Apollo567 kit was taken out. The reagent A in the kit was diluted with 1640 complete culture medium at a ratio of 1000:1 to prepare a 50 μM EDU culture medium, 300 μl of which was configured to each well of the 24-well plate. The 24-well plate was taken out from the incubator, and the original culture medium was aspirated with a vacuum aspirator. […]
(12) 150 μl of PBS was added to each well to wash once, and the PBS was discarded. Then, 200 μl of PBS was added, and the plate was placed on an inverted fluorescence microscope to take pictures. 6 fields of view were taken for each well under a 200× field of view, and the proportion of EDU-positive cells among 100 cells was calculated. […]

[1] = tested on: cisplatin-induced acute kidney damage in mice; assay: Example 11: serum urea nitrogen (Bun) in cisplatin-induced acute kidney damage model; assay type: in vivo, C57BL/6J mice; conditions: for serum urea nitrogen value vs model group: P>0.05; for Urea nitrogen (Bun) level after the assay, x (mean): group mean; for Urea nitrogen (Bun) level after the assay, x (mean) / Urea nitrogen (Bun) level after the assay: cisplatin model; for Urea nitrogen (Bun) level after the assay: individual animals No. 1-7
Experimental: 42 male C57BL/6J mice (age: 6 to 8 weeks, body weight 18-20 g, certificate number: 11400700238365) were purchased from Si Pei Fu (Beijing) Biotechnology Co., Ltd., and raised in an SPF-grade animal room of the Institute of Materia Medica, Chinese Academy of Medical Sciences, at a temperature of 20 to 25° C., a relative humidity of 40% to 70%, and a cycle of 12 hours of light and 12 hours of dark. The animals had free access to water and food. After 3 days of normal feeding, mice with good physical conditions after the veterinary examination were selected for this assay. Before grouping, a marker was used to mark on the base of the animals' tail. After grouping, each animal was marked with an ear cutout (7 mice in each group).
Assay animals: 42 7-week-old male C57 mice were used for animal testing after an adaptive feeding.
Group 1: blank control group;
The preparation of the R01 formulation administration test solution was the same as that in Example 5: an appropriate amount of the R01 formulation was weighed according to the three dosages set in the assay, respectively, and an appropriate volume of 0.5% CMC-Na aqueous solution was added. The mixture was vortexed and sonicated until mixed evenly, to give the administration test solutions with concentrations of […], respectively, which were ready for use.
Animal testing period: 7 days (excluding adaptive feeding), hereinafter referred to as: D1-D7.
1. The first group was a solvent control group: N=7, all mice were males (the same below); • a) 0.5% solution of sodium carboxymethyl cellulose was gavagely administered from D1 to D6 (twice a day for each animal, with an interval of 8 hours between the morning and the afternoon). • b) Physiological saline was intraperitoneally injected in one-time on D4. • c) On D7, blood was collected from the orbit for euthanasia (300 ul of serum was extracted), the left kidney was fixed in formaldehyde, and the right kidney was preserved in liquid nitrogen (WB study may be carried out).
1) The concentrations of urea nitrogen and creatinine in peripheral blood serum were tested.
The body weight of the animals when being grouped for administration in each group was recorded. The body weight and the kidney weight at the end of the assay were also recorded, and the kidney coefficient was calculated. The creatinine and urea nitrogen values in the blood samples sent for testing were recorded. The kidneys were stained with HE and PAS, and the slides were scanned. A report was issued after the pathological analysis.
The assay data were calculated and processed statistically using Microsoft Office Excel 2007 software. Unless otherwise specified, the data were expressed as mean±standard error (Mean±SE), and t-test was used for comparison between two groups.

COC1=C(OC)C(=O)C(CCCCCCCCCCOC(=O)Cc2c(C)n(C(=O)c3ccc(Cl)cc3)c3ccc(OC)cc23)=C(C)C1=O [compound of formula (I)]
proportion of proliferating cells (EDU) (NCI-H460 cells; 48 hours, vs CTL (0 μM)): significantly reduced
cell proliferation under FBS stimulation (EDU) (NCI-H460 cells; FBS increased to 20% for last 6 h): can inhibit the cell proliferation effect
serum urea nitrogen value ([1]; R01 high-dosage group (36 mg/kg bid) with cisplatin 10 mg/kg, P<0.05): significantly lower than that of the model group
serum urea nitrogen value vs model group ([1]; R01 low-dosage group (6 mg/kg bid) with cisplatin 10 mg/kg): no significant difference
serum urea nitrogen value vs model group ([1]; R01 medium-dosage group (18 mg/kg bid) with cisplatin 10 mg/kg): no significant difference
Urea nitrogen (Bun) level after the assay, x (mean) ([1]; R01 6 mg/kg): 16.1 mg/dL
Urea nitrogen (Bun) level after the assay, x (mean) ([1]; R01 18 mg/kg): 16.1 mg/dL
Urea nitrogen (Bun) level after the assay, x (mean) ([1]; R01 36 mg/kg): 13.7 mg/dL
Urea nitrogen (Bun) level after the assay ([1]; R01 6 mg/kg, listed as R01, 6 mg/kg): 28.3 mg/dL and 29.25 mg/dL and 10.62 mg/dL and 11.72 mg/dL and 13.85 mg/dL and 4.91 mg/dL and 14.1 mg/dL
Urea nitrogen (Bun) level after the assay ([1]; R01 18 mg/kg, listed as R01, 18 mg/kg): 13.41 mg/dL and 15.83 mg/dL and 19.59 mg/dL and 14.73 mg/dL and 10.38 mg/dL and 22 mg/dL and 16.55 mg/dL
Urea nitrogen (Bun) level after the assay ([1]; R01 36 mg/kg, listed as R01, 36 mg/kg): 12.39 mg/dL and 12.73 mg/dL and 14.32 mg/dL and 14.34 mg/dL and 9.98 mg/dL and 14 mg/dL and 17.8 mg/dL
